Laboratory results reported in PubChem BioAssay (NCI).
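Compound exposure: 48 hours, 5 concentrations, 96-well plates. Abbreviation: GI50, concentration required for 50% inhibition of growth. Definition used: TGI = concentration required for complete inhibition of growth.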

Key:
Assay in all cases: growth of human tumour cells (NCI), 48 h
BT-549 breast = test system: BT-549 breast
MCF7 breast = test system: MCF7 breast
MDA-MB-231 breast = test system: MDA-MB-231 breast
NCI/ADR-RES ovarian = test system: NCI/ADR-RES ovarian
PC-3 prostate = test system: PC-3 prostate

SMILES	GI50 (BT-549 breast) [µM]	TGI (BT-549 breast) [µM]	GI50 (MCF7 breast) [nM]	TGI (MCF7 breast) [µM]	GI50 (MDA-MB-231 breast) [nM]	TGI (MDA-MB-231 breast) [µM]	GI50 (NCI/ADR-RES ovarian) [µM]	TGI (NCI/ADR-RES ovarian) [µM]	GI50 (PC-3 prostate) [µM]	TGI (PC-3 prostate) [µM]
C1=Cc2ccccc2Nc2ccccc21	> 100	> 100	74700	> 100	> 100000	> 100	> 100	> 100	> 100	> 100
COc1cc(-c2nc(Nc3nc4ccccc4[nH]3)nc(N)c2C#N)cc(OC)c1OC	0.857	37.1	503	> 33.8	13100	92.4	> 100	> 100	1.65	> 93.3
O=C1CC(c2ccc(N3CCOCC3)cc2)(c2ccsc2)NC(=O)C1Sc1ccccc1Cl (stereo not drawn)	16.7	> 100	57200	> 100	45900	> 100	46.7	> 100	53.1	> 100
O=C(CN1CCN(c2ncnc3ccccc23)CC1)Nc1ccc(Cl)cc1C(=O)c1ccccc1Cl	0.239	0.618	636	13.1	387	3.62	3.12	16.3	0.818	> 56.3
Cc1ccc([N+](=O)[O-])c2c(NCCNC(=O)Cn3ccnc3[N+](=O)[O-])ccnc12				44.2		> 100		> 100		> 100
Cn1nccc1Nc1nccc(-c2cc3c(s2)C(C)(C)N(CCN2CCOCC2)C3=O)n1	19	99.8	24100	> 100	2800	> 100	56	> 100	28.8	> 100
Cc1nc(Cl)nc(Cl)c1C		> 100		> 100				> 100		> 100
C/C=C(\C)C(=O)N[C@H]1CC[C@]2(C)C3CC[C@@]4(C)C(CC[C@@H]4C(C)N(C)C)C3CCC2[C@H]1OC(C)=O (stereo partly drawn)	2.07	5.48	1270	2.92	1910	4.02	3.11	12	2.05	6.59
CCCN(CCC)C(=O)C1=Cc2ccc(-c3ccc(C(=O)N4CCCC4)cc3)cc2N=C(N)C1	12.8	33.3	3320	15.3	13200	77	19.4	62.2	8.56	> 95.4
CC1=C(C(=O)Nc2ccc(F)c(Cl)c2)C(c2ccccc2Cl)NC(=S)N1 (stereo not drawn)	> 50	> 50	21700	> 50	19600	> 50	18	49.1	20.2	> 50
CC1CC2(C)ON=C(c3ccccc3)N2c2ccccc2S1 (stereo not drawn)	24.8	67.4	31400	79			17.6	46.6		
COc1cccc(C2c3cc4c(cc3OC(C)(O)C2C)OCO4)c1O (stereo not drawn)		52.8		49.6		19.2		6.4		> 100
Cn1ccnc1C(=O)/C=C/c1ccc(C(=O)Nc2ccc(Cl)cc2)cc1	0.958	7.72	899	24.1	1200	16.7	1.06	> 33.3	0.951	19
COc1ccc2c(c1)C(=O)/C(=C/c1cccc(OCC(=O)Nc3nc4c(s3)CCCC4)c1)O2	1.74	4.49	2830	11.8	1180	5.38	2.12	6.37	0.285	1.01
COc1ccc(-c2[nH]c3ccccc3c2C=C(C#N)C#N)cc1	0.769	> 100	346	> 100	543	> 22.6	0.335	4.7	0.547	> 100
O=C(Nc1ccccc1O)c1cccc(NC2=C(Cl)C(=O)N(Cc3ccccc3)C2=O)c1	11.9	29.8	2700	14.8	1890	7.53	3.35	11.8	13.7	26.6
CC1=NN(c2ccccc2)C(=O)C1N=Nc1ccc([As](=O)(O)O)c(O)c1 (stereo not drawn)		> 100		> 100		> 100		> 100		> 100
Cc1cc(N2CCCCC2)nc(N(CCCNc2ccnc3cc(Cl)ccc23)Cc2ccco2)n1	2.65	8.54	1810	5.13	1730	4.24	1.43	3.87	1.98	5.61
Oc1ccc(-c2nnc3sc(-c4ccc(F)c(Oc5ccccc5)c4)nn23)cc1			14600	> 100	16400	47.4	66.5	> 100	36.8	> 100
COc1cc(C(=O)c2ccc3c(c2)OCO3)cc(OC)c1OC	7.09	> 100	824	> 100	8650	> 100	0.987	> 100	4.12	> 100
COc1cc2nc(-c3cnc(N(C)C)nc3)nc(NC3CCN(Cc4ccccc4)CC3)c2cc1OC	1.71	3.43			1570	3.4			1.46	3.09
CC(=O)N1N=C2/C(=C/c3ccccc3)CC(C)CC2C1c1ccccc1 (stereo not drawn)	15.6	33.1	10100	22.6	14200	31.8	12.5	28.8	10.7	40.2
O=c1c2cccc(Cl)c2sc2c(NCCCNCCO)nc3ccccc3c12	14.8	30.6	1130	2.66	1400	3.54	2.98	12.1	3.45	15.5
